Source: US20230150951A1, “2,5- OR 2,6-DISUBSTITUTED HYDROQUINONE DERIVATIVES WITH AT LEAST ONE CARBOXY, SULFO OR AMIDO GROUP USEFUL AS MEDICAMENTS” (OM PHARMA SA, priority 2020, published 2023)
Read-outs that look alike come from different tables or passages of the source.

Legend:
Format in all cases: cell-based
[1] = system: IL-33; experiment: Cytokine release after LPS induction on human whole blood: IL-33
Description: (§1) Aim of this in vitro method is to assess compounds effects on release of a panel of cytokines from whole blood following lipopolysaccharide (LPS) induced inflammatory reaction. Whole blood was incubated with compounds for 1 h prior to LPS induction. Cytokine levels in blood were measured using a multiplex FACS-based panel.
(§2) IC50 values determined for the tested compounds expressed in microM [μM] and the values for the inhibition of cytokines were listed for each compound.
(§3) Effect on cytokines release after LPS induction was performed on the compounds dissolved in DMSO or H2O to reach 10-fold concentrated stock solutions and dissolved in culture media.
(§4) Test system: Whole blood was removed from a single donor (into lithium heparin coated tubes; BD Vacutainer; 367886) and diluted 1:5 with RPMI 1640 (Thermo Fisher, 61870036). Within 30 minutes of sampling, blood was incubated with compounds for 1 h prior to LPS stimulation (O111:B4—Sigma L4391; 10 ng/ml final concentration). Stimulation continued under standard cell culture conditions (37° C. with 5% CO2) overnight (18 h), after which plates were centrifuged and supernatant removed and frozen at −80° C. until used for analyses.
(§5) Dilution of test compounds: 10×concentrated solutions (concerning to the final assay concentrations) of each test compound were prepared with the appropriate solvent (in DMSO or in water). These 10× compound solutions (10 μl) were then added to 90 μl pre-diluted whole blood (whole blood: RPMI1640, 1:5) resulting in the final assay concentration.
(§6) Test method: Diluted whole blood (80 μl) was pre-incubated with compounds (10 μl) to give final assay concentrations of 100, 30, 10, 3, 1, 0.3 and 0.1×10^−6M. Blood was incubated at 37° C. with 5% CO2 for 1 h. LPS was diluted in cell culture media to a concentration of […]; 10 μl was added to the whole blood to give a final concentration of 10 ng/ml. Plates were incubated at 37° C. for 18 h. Plates were centrifuged at 3,000 RPM for 5 minutes at 4° C. and supernatant removed and frozen at −80° C. until FACS analysis was carried out.
(§7) Cytokine release was measured using a custom multiplex system (ELISA Genie) according to manufacturers instructions. Prepared samples were run on an Attune NxT flow cytometer (Thermo Fisher).
(§8) Quantification of cytokine release inhibition: known concentration standards were run as part of the cytokine panel to allow quantification of each cytokine concentration in each sample. This was carried out using FCAP Array v3.0 software.
(§9) Results: The dose response relationship on cytokine release following LPS induction of inflammatory response in whole blood was assessed for all compounds. IC50 values were determined for each compound for a panel of cytokines (GM-CSF, IFN-gamma, IL-1beta, IL-2, IL-4, IL-5, IL-6, IL-8, IL-9, IL-10, IL-12p40, IL-13, IL-17A, IL-17F, IL-18, IL-21, IL-22, IL-33, TGF-beta, TNF-alpha, TNF-beta).

[2] = target: T1, VEGFR-2 (Homo sapiens, UniProt P35968); experiment: VEGF-165 induced phosphorylation of VEGF-Receptor on HUVEC; settings: HUVEC preincubated 60 min, VEGF165 25 ng/mL 2 min; read-out: VEGFR-Phosphorylation inhibition IC50
T1 construct: endogenous in cells; host or cells: primary HUVEC
T1 sequence (P35968 20-1356): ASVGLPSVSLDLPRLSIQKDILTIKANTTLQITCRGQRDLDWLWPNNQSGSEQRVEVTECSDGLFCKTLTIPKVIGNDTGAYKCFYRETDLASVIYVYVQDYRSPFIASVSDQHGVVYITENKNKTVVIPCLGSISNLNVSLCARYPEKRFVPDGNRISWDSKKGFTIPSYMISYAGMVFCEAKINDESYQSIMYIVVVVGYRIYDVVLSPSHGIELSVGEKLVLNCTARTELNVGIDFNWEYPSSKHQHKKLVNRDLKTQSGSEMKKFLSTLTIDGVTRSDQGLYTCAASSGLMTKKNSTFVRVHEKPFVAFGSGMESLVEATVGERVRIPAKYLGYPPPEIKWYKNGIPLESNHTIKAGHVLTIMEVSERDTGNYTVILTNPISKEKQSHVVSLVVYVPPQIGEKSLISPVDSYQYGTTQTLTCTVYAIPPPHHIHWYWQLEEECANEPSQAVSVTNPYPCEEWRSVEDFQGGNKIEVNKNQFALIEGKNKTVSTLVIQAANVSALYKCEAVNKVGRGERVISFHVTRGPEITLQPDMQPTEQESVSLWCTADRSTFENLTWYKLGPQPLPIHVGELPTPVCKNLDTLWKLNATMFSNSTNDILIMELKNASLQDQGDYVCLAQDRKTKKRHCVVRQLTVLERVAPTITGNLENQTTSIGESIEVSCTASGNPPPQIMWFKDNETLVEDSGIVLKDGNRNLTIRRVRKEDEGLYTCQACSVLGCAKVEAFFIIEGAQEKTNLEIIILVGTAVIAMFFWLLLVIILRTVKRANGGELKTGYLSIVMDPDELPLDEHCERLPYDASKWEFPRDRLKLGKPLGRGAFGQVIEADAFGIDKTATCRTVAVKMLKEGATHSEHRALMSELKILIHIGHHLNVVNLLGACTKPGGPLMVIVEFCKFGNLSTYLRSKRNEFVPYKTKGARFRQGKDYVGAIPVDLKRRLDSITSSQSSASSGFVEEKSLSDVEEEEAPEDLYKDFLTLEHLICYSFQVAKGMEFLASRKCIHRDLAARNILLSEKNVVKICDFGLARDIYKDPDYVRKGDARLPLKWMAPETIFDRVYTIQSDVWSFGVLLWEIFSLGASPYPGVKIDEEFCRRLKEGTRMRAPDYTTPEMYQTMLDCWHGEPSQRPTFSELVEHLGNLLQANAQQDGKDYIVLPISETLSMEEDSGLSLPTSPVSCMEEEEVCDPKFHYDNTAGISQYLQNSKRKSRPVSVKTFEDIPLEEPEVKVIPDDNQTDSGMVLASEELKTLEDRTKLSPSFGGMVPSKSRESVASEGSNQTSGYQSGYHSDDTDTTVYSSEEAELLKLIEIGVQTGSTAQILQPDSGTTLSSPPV

[3] = system: IL-17A; experiment: Cytokine release after LPS induction on human whole blood: IL-17A
Description: as §1, §2, §3, §4, §5, §6, §7, §8, §9

[4] = system: IL-5; experiment: Cytokine release after LPS induction on human whole blood: IL-5
Description: as §1, §2, §3, §4, §5, §6, §7, §8, §9

[5] = system: TNF-alpha; experiment: Cytokine release after LPS induction on human whole blood: TNFα
Description: as §1, §2, §3, §4, §5, §6, §7, §8, §9

[6] = system: TGF-beta; experiment: Cytokine release after LPS induction on human whole blood: TGFβ
Description: as §1, §2, §3, §4, §5, §6, §7, §8, §9

[7] = system: IL-18; experiment: Cytokine release after LPS induction on human whole blood: IL-18
Description: as §1, §2, §3, §4, §5, §6, §7, §8, §9

[8] = system: TNF-beta; experiment: Cytokine release after LPS induction on human whole blood: TNFβ
Description: as §1, §2, §3, §4, §5, §6, §7, §8, §9

[9] = system: IL-13; experiment: Cytokine release after LPS induction on human whole blood: IL-13
Description: as §1, §2, §3, §4, §5, §6, §7, §8, §9

[10] = system: IL-4; experiment: Cytokine release after LPS induction on human whole blood: IL-4
Description: as §1, §2, §3, §4, §5, §6, §7, §8, §9

[11] = Homo sapiens, LPS 10 ng/ml, 18 h, read-out: Whole Blood: IL-33 IC50
[12] = human whole blood, inhibition of LPS induced inflammation, read-out: IC50 IL-33
[13] = Homo sapiens, LPS 10 ng/ml, 18 h, read-out: Whole Blood: IL-17A IC50
[14] = human whole blood, inhibition of LPS induced inflammation, read-out: IC50 IL-17A
[15] = Homo sapiens, LPS 10 ng/ml, 18 h, read-out: Whole Blood: IL-5 IC50
[16] = human whole blood, inhibition of LPS induced inflammation, read-out: IC50 IL-5
[17] = Homo sapiens, LPS 10 ng/ml, 18 h, read-out: Whole Blood: TNF α IC50
[18] = human whole blood, inhibition of LPS induced inflammation, read-out: IC50 TNFa
[19] = Homo sapiens, LPS 10 ng/ml, 18 h, read-out: Whole Blood: TGFβ IC50
[20] = human whole blood, inhibition of LPS induced inflammation, read-out: IC50 TGFbeta
[21] = Homo sapiens, LPS 10 ng/ml, 18 h, read-out: Whole Blood: IL-18 IC50
[22] = human whole blood, inhibition of LPS induced inflammation, read-out: IC50 IL-18
[23] = Homo sapiens, LPS 10 ng/ml, 18 h, read-out: Whole Blood: TNF β IC50
[24] = human whole blood, inhibition of LPS induced inflammation, read-out: IC50 β
[25] = Homo sapiens, LPS 10 ng/ml, 18 h, read-out: Whole Blood: IL-13 IC50
[26] = human whole blood, inhibition of LPS induced inflammation, read-out: IC50 IL-13
[27] = Homo sapiens, LPS 10 ng/ml, 18 h, read-out: Whole Blood: IL-4 IC50
[28] = human whole blood, inhibition of LPS induced inflammation, read-out: IC50 IL-4

SMILES | IC50 [1, 11] | IC50 [1, 12] | IC50 [2] | IC50 [3, 13] | IC50 [3, 14] | IC50 [4, 15] | IC50 [4, 16] | IC50 [5, 17] | IC50 [5, 18] | IC50 [6, 19] | IC50 [6, 20] | IC50 [7, 21] | IC50 [7, 22] | IC50 [8, 23] | IC50 [8, 24] | IC50 [9, 25] | IC50 [9, 26] | IC50 [10, 27] | IC50 [10, 28]
O=C(Nc1ccccc1-c1nnn[nH]1)c1cc(O)c(C(=O)Nc2ccccc2-c2nnn[nH]2)cc1O [Ic-001aTz2, N1,N4-bis(2-(1H-tetrazol-5-yl)phenyl)-2,5-dihydroxyterephthalamide] | 0.23 µM |  | 2.2 µM | 0.31 µM |  | > 100 µM |  | 0.1 µM |  | > 100 µM |  | 33.9 µM |  | 0.41 µM |  | 0.12 µM |  | > 100 µM | 
COC(=O)c1cc(OC(C)=O)cc(CS(=O)(=O)Cc2cc(OC(C)=O)cc(C(=O)OC)c2OC(C)=O)c1OC(C)=O [IVc-059a-E2-A4] | 23.2 µM | 23.2 µM |  | 0.02 µM | 0.02 µM | > 100 µM | 100 µM | 0.3 µM | 0.3 µM | > 100 µM | 100 µM | > 100 µM | 100 µM | 19.4 µM | 19.4 µM | 18.7 µM | 18.7 µM | > 100 µM | 100 µM
O=C(O)c1cc(O)c(C(=O)Nc2ccc(-c3nnn[nH]3)cc2)cc1O [Ia-003a-Tz, 4-(4-(1H-tetrazol-5-yl)phenyl-aminocarbonyl)-2,5-dihydroxybenzoic acid] | 72.2 µM | 72.2 µM | 6.4 µM | 0.07 µM | 0.07 µM | > 100 µM | 100 µM | 0.18 µM | 0.18 µM | > 100 µM | 100 µM | > 100 µM | 100 µM | 55 µM | 55 µM | 89.6 µM | 89.6 µM | > 100 µM | 100 µM
O=C(O)c1cc(O)c(C(=O)Nc2ccccc2-c2nnn[nH]2)cc1O [Ia-001a-Tz, 4-(2-(1H-tetrazol-5-yl)phenyl-aminocarbonyl)-2,5-dihydroxybenzoic acid] | 23.6 µM | 23.6 µM | 0.23 µM | 0.11 µM | 0.11 µM | > 100 µM | 100 µM | 0.63 µM | 0.63 µM | > 100 µM | 100 µM | > 100 µM | 100 µM | 53 µM | 53 µM | 32.1 µM | 32.1 µM | > 100 µM | 100 µM

Results, then the compound that gave them:

IC50 [1, 11] | IC50 [1, 12] | IC50 [2] | IC50 [3, 13] | IC50 [3, 14] | IC50 [4, 15] | IC50 [4, 16] | IC50 [5, 17] | IC50 [5, 18] | IC50 [6, 19] | IC50 [6, 20] | IC50 [7, 21] | IC50 [7, 22] | IC50 [8, 23] | IC50 [8, 24] | IC50 [9, 25] | IC50 [9, 26] | IC50 [10, 27] | IC50 [10, 28] | SMILES
19.3 µM | 19.3 µM | 2.25 µM | 0.1 µM | 0.1 µM | > 100 µM | 100 µM | 0.02 µM | 0.02 µM | > 100 µM | 100 µM | > 100 µM | 100 µM | 13.2 µM | 13.2 µM | 26.4 µM | 26.4 µM | > 100 µM | 100 µM | O=C(O)c1cc(O)c(C(=O)Nc2ccccc2C(=O)O)cc1O [Ia-001a, 4-(2-carboxyphenylaminocarbonyl)-2,5-dihydroxybenzoic acid]
1.11 µM | 1.11 µM | 1.3 µM | 0.15 µM | 0.15 µM | > 100 µM | 100 µM | 0.51 µM | 0.51 µM | > 100 µM | 100 µM | > 100 µM | 100 µM | 0.89 µM | 0.89 µM | 0.37 µM | 0.37 µM | > 100 µM | 100 µM | O=C(O)Cc1cc(O)c(C(=O)Nc2c(C(=O)O)cccc2C(=O)O)cc1O [IIIa-013a, 2-(4-(carboxymethyl)-2,5-dihydroxybenzamido)isophthalic acid]
27.5 µM | 27.5 µM | 4.8 µM | 0.16 µM | 0.16 µM | > 100 µM | 100 µM | 0.16 µM | 0.16 µM | > 100 µM | 100 µM | > 100 µM | 100 µM | 0.33 µM | 0.33 µM | > 100 µM | 100 µM | > 100 µM | 100 µM | O=C(O)c1cc(O)cc(CS(=O)(=O)Cc2cc(O)cc(C(=O)O)c2O)c1O [IVc-059a, 3-((2,5-Dihydroxy-3-carboxyphenyl)methylsulfonylmethyl)-2,5-dihydroxybenzoic acid]
31.3 µM | 31.3 µM | 1.6 µM | 0.42 µM | 0.42 µM | > 100 µM | 100 µM | 0.31 µM | 0.31 µM | > 100 µM | 100 µM | > 100 µM | 100 µM | 49.3 µM | 49.3 µM | > 100 µM | 100 µM | > 100 µM | 100 µM | O=C(O)c1cc(NC(=O)c2cc(O)c(C(=O)O)cc2O)cc(NC(=O)c2cc(O)c(C(=O)O)cc2O)c1 [Ib-010a, 3,5-bis(2,5-dihydroxy-4-carboxybenzoylamino)benzoic acid]
2.93 µM | 2.93 µM | 0.2 µM | 1.32 µM | 1.32 µM | > 100 µM | 100 µM | 0.15 µM | 0.15 µM | > 100 µM | 100 µM | > 100 µM | 100 µM | 1.58 µM | 1.58 µM | 4.73 µM | 4.73 µM | > 100 µM | 100 µM | CC(=O)N(Cc1cc(O)c(C(=O)O)cc1O)Cc1cc(O)c(C(=O)O)cc1O [IIIc-057a, N,N-Bis(4-carboxy-2,5-dihydroxyphenylmethyl)acetamide]
33.9 µM | 33.9 µM | 0.53 µM | 0.1 µM | 0.1 µM | > 100 µM | 100 µM | 0.18 µM | 0.18 µM | > 100 µM | 100 µM | > 100 µM | 100 µM | 59.3 µM | 59.3 µM | 55.9 µM | 55.9 µM | > 100 µM | 100 µM | O=C(O)c1cc(O)cc(CSCc2cc(O)cc(C(=O)O)c2O)c1O [IVc-058a, 3-((2,5-Dihydroxy-3-carboxyphenyl)methylthiomethyl)-2,5-dihydroxybenzoic acid]
